Results published in ChEMBL document CHEMBL4387741, “Optimization of novel reversible Bruton's tyrosine kinase inhibitors identified using Tethering-fragment-based screens” (Bioorg Med Chem, 2019).

Legend:
[1] = system: Tyrosine-protein kinase ABL1 (Homo sapiens), P00519 [Q252H]; assay: Inhibition of human non-phosphorylated ABL1 Q252H mutant (S229 to K512 residues) expressed in mammalian expression system at 1 uM by Kinomescan method relative to control
[2] = biological target: Ankyrin repeat and protein kinase domain-containing protein 1 (Homo sapiens) (UniProt Q8NFD2); assay: Inhibition of wild-type human partial length ANKK1 (M1 to A305 residues) expressed in mammalian expression system at 1 uM by Kinomescan method relative to control
[3] = biological target: Cyclin-dependent kinase 19 (Homo sapiens) (UniProt Q9BWU1); assay: Inhibition of wild-type human partial length CDK11 (M1 to N360 residues) expressed in bacterial expression system at 1 uM by Kinomescan method relative to control
[4] = biological target: Macrophage colony-stimulating factor 1 receptor (Homo sapiens) (UniProt P07333); assay: Inhibition of wild-type human partial length autoinhibited CSF1R (Y538 to S939 residues) expressed in mammalian expression system at 1 uM by Kinomescan method relative to control
[5] = biological target: Fibroblast growth factor receptor 4 (Homo sapiens) (UniProt P22455); assay: Inhibition of wild-type human partial length FGFR4 (G402 to E713 residues) expressed in bacterial expression system at 1 uM by Kinomescan method relative to control
[6] = system: Receptor-type tyrosine-protein kinase FLT3 (Homo sapiens), P36888 [D835V]; assay: Inhibition of human partial length FLT3 D835V mutant (V592 to Y969 residues) expressed in bacterial expression system at 1 uM by Kinomescan method relative to control
[7] = biological target: Rhodopsin kinase GRK7 (Homo sapiens) (UniProt Q8WTQ7); assay: Inhibition of wild-type human full length GRK7 (M1 to L553 residues) expressed in mammalian expression system at 1 uM by Kinomescan method relative to control
[8] = biological target: Serine/threonine-protein kinase Nek2 (Homo sapiens) (UniProt P51955); assay: Inhibition of wild-type human partial length NEK2 (M1 to K309 residues) expressed in bacterial expression system at 1 uM by Kinomescan method relative to control
[9] = biological target: Mitogen-activated protein kinase kinase kinase 14 (Homo sapiens) (UniProt Q99558); assay: Inhibition of wild-type human partial length NIK (L318 to P947 residues) expressed in mammalian expression system at 1 uM by Kinomescan method relative to control
[10] = biological target: Phosphatidylinositol 4,5-bisphosphate 3-kinase catalytic subunit alpha isoform (Homo sapiens) (UniProt P42336); assay: Inhibition of wild-type human partial length PIK3CA (R108 to N1068 residues) expressed in mammalian expression system at 1 uM by Kinomescan method relative to control
[11] = biological target: Dual specificity testis-specific protein kinase 1 (Homo sapiens) (UniProt Q15569); assay: Inhibition of wild-type human full length TESK1 (R37 to S626 residues) expressed in bacterial expression system at 1 uM by Kinomescan method relative to control
[12] = system: Tyrosine-protein kinase ABL1 (Homo sapiens), P00519 [Y253F]; assay: Inhibition of human phosphorylated ABL1 Y253F mutant (S229 to K512 residues) expressed in mammalian expression system at 10 uM by Kinomescan method relative to control
[13] = system: Serine/threonine-protein kinase B-raf (Homo sapiens), P15056 [V600E]; assay: Inhibition of human partial length BRAF V600E mutant (S429 to E741 residues) expressed in mammalian expression system at 10 uM by Kinomescan method relative to control
[14] = biological target: Calcium/calmodulin-dependent protein kinase type II subunit gamma (Homo sapiens) (UniProt Q13555); assay: Inhibition of wild-type human partial length CAMK2G (R9 to A303 residues) expressed in bacterial expression system at 10 uM by Kinomescan method relative to control
[15] = biological target: Cyclin-dependent kinase 2 (Homo sapiens) (UniProt P24941); assay: Inhibition of wild-type human full length CDK2 (M1 to L298 residues) expressed in bacterial expression system at 10 uM by Kinomescan method relative to control
[16] = biological target: Casein kinase I isoform epsilon (Homo sapiens) (UniProt P49674); assay: Inhibition of wild-type human full length CSNK1E (M1 to K416 residues) expressed in bacterial expression system at 10 uM by Kinomescan method relative to control
[17] = biological target: Casein kinase I isoform gamma-2 (Homo sapiens) (UniProt P78368); assay: Inhibition of wild-type human full length CSNK1G2 (M1 to K415 residues) expressed in bacterial expression system at 10 uM by Kinomescan method relative to control
[18] = biological target: Death-associated protein kinase 2 (Homo sapiens) (UniProt Q9UIK4); assay: Inhibition of wild-type human full length DAPK2 (M1 to S370 residues) expressed in bacterial expression system at 10 uM by Kinomescan method relative to control
[19] = biological target: Receptor tyrosine-protein kinase erbB-3 (Homo sapiens) (UniProt P21860); assay: Inhibition of wild-type human partial length ERBB3 (G684 to A987 residues) expressed in mammalian expression system at 10 uM by Kinomescan method relative to control
[20] = biological target: Homeodomain-interacting protein kinase 4 (Homo sapiens) (UniProt Q8NE63); assay: Inhibition of wild-type human partial length HIPK4 (M1 to V384 residues) expressed in bacterial expression system at 10 uM by Kinomescan method relative to control
[21] = biological target: Serine/threonine-protein kinase LATS1 (Homo sapiens) (UniProt O95835); assay: Inhibition of wild-type human partial length LATS1 (Q678 to V1130 residues) expressed in bacterial expression system at 10 uM by Kinomescan method relative to control
[22] = biological target: Serine/threonine-protein kinase Nek10 (Homo sapiens) (UniProt Q6ZWH5); assay: Inhibition of wild-type human partial length NEK10 (L488 to R809 residues) expressed in mammalian expression system at 10 uM by Kinomescan method relative to control
[23] = biological target: Phosphatidylinositol 4,5-bisphosphate 3-kinase catalytic subunit gamma isoform (Homo sapiens) (UniProt P48736); assay: Inhibition of wild-type human partial length PIK3CG (S144 to A1102 residues) expressed in mammalian expression system at 10 uM by Kinomescan method relative to control
[24] = biological target: Serine/threonine-protein kinase D1 (Homo sapiens) (UniProt Q15139); assay: Inhibition of wild-type human partial length PRKD1 (G551 to E870 residues) expressed in bacterial expression system at 10 uM by Kinomescan method relative to control
[25] = system: Proto-oncogene tyrosine-protein kinase receptor Ret (Homo sapiens), P07949 [V804L]; assay: Inhibition of human partial length RET V804L mutant (E713 to D1014 residues) expressed in bacterial expression system at 10 uM by Kinomescan method relative to control
[26] = biological target: Proto-oncogene tyrosine-protein kinase Src (Homo sapiens) (UniProt P12931); assay: Inhibition of wild-type human partial length SRC (L240 to L536 residues) expressed in bacterial expression system at 10 uM by Kinomescan method relative to control

Mitogen-activated protein kinase kinase kinase 14 (Homo sapiens), sequence (Q99558 whole entry, looked up, the tested form may be a part, canonical isoform): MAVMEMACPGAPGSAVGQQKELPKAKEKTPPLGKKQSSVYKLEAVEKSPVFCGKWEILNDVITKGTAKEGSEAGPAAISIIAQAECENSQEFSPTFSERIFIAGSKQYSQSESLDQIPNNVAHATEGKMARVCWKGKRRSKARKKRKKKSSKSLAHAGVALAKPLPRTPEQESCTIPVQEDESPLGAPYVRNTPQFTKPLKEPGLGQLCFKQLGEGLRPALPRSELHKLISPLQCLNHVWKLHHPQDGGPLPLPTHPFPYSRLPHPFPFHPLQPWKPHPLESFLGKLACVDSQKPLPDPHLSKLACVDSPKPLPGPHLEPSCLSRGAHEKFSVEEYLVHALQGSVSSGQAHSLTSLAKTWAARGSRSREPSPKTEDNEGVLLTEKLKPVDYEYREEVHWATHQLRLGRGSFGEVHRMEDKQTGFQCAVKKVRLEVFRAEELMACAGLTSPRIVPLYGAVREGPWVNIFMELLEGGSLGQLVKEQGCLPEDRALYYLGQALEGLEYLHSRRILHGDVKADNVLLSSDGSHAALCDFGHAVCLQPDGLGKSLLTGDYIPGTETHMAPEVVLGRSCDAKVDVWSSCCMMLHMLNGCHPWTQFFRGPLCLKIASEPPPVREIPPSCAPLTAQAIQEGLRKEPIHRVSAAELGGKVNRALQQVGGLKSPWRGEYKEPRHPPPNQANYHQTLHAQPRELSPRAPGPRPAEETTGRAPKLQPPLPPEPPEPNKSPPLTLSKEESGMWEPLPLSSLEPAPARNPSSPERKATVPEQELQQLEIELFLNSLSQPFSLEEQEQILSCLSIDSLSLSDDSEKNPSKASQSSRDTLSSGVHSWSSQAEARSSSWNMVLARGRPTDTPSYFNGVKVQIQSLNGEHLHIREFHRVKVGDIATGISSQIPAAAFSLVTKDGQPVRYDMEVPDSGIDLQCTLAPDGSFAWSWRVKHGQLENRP
Death-associated protein kinase 2 (Homo sapiens), sequence (Q9UIK4 whole entry, looked up, the tested form may be a part): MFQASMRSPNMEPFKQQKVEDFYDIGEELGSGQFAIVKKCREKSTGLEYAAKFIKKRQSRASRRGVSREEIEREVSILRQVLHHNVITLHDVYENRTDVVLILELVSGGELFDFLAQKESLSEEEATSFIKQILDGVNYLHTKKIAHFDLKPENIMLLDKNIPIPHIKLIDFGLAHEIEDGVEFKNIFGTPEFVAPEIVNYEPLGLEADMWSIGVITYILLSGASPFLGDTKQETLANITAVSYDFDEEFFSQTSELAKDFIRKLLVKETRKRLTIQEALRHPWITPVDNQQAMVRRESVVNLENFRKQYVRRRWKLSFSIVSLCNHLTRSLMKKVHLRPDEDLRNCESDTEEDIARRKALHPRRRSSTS
Receptor tyrosine-protein kinase erbB-3 (Homo sapiens), sequence (P21860 whole entry, the tested form may be a part): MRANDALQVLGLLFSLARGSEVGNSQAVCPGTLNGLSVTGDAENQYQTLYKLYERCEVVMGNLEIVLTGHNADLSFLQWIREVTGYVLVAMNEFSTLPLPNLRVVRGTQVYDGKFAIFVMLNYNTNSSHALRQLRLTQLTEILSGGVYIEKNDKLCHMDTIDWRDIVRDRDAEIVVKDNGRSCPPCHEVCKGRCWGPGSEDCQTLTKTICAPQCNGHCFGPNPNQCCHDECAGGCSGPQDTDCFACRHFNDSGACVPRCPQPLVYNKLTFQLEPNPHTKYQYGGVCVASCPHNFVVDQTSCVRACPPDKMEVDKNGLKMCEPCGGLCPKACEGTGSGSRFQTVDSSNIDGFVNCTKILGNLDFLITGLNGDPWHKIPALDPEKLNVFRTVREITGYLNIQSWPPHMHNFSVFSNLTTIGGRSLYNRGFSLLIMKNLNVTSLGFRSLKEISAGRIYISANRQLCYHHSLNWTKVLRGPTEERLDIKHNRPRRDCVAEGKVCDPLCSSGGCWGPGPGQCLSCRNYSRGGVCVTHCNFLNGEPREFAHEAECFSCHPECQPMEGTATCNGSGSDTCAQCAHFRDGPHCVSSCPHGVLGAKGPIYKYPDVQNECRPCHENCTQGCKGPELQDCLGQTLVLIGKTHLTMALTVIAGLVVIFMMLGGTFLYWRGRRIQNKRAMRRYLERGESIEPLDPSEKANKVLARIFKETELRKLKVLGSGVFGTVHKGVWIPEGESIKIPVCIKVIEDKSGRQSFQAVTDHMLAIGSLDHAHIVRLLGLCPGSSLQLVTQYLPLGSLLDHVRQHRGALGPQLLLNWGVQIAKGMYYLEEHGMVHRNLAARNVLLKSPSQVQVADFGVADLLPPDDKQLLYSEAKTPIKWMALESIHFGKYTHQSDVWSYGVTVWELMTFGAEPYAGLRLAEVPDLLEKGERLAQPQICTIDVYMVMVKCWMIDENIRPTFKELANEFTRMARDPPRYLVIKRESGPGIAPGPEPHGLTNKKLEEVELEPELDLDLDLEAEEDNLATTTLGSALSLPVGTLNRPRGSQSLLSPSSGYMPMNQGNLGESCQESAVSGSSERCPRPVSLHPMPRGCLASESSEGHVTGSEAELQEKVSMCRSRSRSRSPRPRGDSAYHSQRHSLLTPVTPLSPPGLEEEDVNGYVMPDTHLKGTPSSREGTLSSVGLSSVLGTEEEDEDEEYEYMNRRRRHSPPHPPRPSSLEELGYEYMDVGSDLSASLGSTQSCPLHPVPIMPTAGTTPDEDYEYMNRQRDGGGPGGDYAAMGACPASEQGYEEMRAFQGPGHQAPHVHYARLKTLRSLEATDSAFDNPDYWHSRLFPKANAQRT
Ankyrin repeat and protein kinase domain-containing protein 1 (Homo sapiens), sequence (Q8NFD2 whole entry, the tested form may be a part): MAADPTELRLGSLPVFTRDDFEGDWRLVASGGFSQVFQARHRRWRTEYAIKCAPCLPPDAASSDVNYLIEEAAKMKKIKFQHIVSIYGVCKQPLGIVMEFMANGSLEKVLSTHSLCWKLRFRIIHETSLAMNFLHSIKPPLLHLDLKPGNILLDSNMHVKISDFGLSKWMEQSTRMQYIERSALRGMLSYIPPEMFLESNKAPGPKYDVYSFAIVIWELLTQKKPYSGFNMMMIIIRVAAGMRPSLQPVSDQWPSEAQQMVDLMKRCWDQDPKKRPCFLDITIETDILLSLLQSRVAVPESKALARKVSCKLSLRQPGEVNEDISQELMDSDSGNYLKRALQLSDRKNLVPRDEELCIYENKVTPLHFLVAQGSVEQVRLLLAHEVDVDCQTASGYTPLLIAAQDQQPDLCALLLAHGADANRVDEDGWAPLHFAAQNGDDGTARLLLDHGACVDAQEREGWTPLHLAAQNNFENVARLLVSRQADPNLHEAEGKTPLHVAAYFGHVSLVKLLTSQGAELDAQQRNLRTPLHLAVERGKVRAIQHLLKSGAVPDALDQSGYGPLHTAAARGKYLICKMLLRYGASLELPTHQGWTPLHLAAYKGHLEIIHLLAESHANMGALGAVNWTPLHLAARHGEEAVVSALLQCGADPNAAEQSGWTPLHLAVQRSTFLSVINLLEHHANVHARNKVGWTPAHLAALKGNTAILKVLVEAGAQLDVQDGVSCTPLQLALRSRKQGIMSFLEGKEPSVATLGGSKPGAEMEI
Calcium/calmodulin-dependent protein kinase type II subunit gamma (Homo sapiens), sequence (Q13555 whole entry, the tested form may be a part): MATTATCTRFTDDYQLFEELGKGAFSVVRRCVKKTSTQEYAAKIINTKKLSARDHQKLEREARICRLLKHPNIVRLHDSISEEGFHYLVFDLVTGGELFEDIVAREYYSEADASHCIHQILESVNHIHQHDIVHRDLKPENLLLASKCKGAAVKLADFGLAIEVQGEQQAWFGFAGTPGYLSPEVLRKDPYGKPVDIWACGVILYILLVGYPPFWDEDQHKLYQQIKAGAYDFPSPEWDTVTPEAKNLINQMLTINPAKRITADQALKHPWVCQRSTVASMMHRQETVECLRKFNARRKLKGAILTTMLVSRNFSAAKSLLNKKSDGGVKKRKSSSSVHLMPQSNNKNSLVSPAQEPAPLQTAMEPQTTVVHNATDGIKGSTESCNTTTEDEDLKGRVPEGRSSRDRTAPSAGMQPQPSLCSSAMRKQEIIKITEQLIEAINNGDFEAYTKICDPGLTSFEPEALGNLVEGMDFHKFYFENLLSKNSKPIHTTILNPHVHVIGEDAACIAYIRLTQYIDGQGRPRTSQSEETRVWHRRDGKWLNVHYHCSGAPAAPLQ
Proto-oncogene tyrosine-protein kinase receptor Ret (Homo sapiens), P07949 [V804L], sequence (P07949 whole entry V804L, the tested form may be a part): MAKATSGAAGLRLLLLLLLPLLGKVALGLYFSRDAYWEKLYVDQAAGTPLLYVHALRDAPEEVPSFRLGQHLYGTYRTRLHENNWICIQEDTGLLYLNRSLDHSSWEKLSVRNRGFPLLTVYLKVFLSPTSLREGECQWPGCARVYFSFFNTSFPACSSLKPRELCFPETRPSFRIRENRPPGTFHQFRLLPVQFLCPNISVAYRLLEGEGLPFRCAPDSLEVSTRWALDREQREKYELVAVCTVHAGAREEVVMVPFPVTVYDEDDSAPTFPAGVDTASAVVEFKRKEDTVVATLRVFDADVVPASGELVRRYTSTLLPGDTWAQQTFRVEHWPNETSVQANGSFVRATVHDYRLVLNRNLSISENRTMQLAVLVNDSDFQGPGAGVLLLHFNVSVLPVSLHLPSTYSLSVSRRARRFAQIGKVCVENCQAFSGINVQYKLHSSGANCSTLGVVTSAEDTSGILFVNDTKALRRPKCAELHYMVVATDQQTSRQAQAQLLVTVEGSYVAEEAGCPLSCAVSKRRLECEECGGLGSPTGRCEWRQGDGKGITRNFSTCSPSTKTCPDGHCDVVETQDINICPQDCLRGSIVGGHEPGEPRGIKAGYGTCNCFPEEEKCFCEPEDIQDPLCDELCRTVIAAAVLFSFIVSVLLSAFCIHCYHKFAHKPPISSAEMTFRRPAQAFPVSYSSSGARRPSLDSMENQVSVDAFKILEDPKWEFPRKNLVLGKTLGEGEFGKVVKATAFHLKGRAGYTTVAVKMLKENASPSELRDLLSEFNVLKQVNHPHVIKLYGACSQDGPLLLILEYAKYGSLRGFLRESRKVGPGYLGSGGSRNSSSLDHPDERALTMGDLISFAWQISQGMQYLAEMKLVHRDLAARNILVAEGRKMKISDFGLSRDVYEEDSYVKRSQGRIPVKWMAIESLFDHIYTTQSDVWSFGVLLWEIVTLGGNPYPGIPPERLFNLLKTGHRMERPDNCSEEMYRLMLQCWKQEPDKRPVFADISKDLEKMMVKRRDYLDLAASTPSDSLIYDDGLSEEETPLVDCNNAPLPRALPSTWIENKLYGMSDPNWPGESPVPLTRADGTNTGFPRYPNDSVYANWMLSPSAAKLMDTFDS

## O=C(Nc1cccc([C@@H]2CN(c3ncnc4[nH]ccc34)CCN2CCO)c1)Nc1c(F)cccc1N1CCCC1
[1]
  inhibition: 55%
[2]
  inhibition: 100%
[3]
  inhibition: 100%
[4]
  inhibition: 83%
[5]
  inhibition: 100%
[6]
  inhibition: 11%
[7]
  inhibition: 99%
[8]
  inhibition: 100%
[9]
  inhibition: 84%
[10]
  inhibition: 100%
[11]
  inhibition: 100%

## O=C(Nc1cccc([C@H]2CCCN(c3ncnc4[nH]ccc34)C2)c1)Nc1ccccc1N1CCCC1
[12]
  inhibition: 74%
[13]
  inhibition: 16%
[14]
  inhibition: 94%
[15]
  inhibition: 67%
[16]
  inhibition: 90%
[17]
  inhibition: 100%
[18]
  inhibition: 7.1%
[19]
  inhibition: 72%
[20]
  inhibition: 100%
[21]
  inhibition: 14%
[22]
  inhibition: 4.3%
[23]
  inhibition: 75%
[24]
  inhibition: 100%
[25]
  inhibition: 0.1%
[26]
  inhibition: 80%
